Laboratory results published in PubChem BioAssay (NCI).
Where “and” joins values, the source holds several entries; their conditions need not be identical. Equal values may be shown once.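 Where inhibition never reached the appropriate level, the endpoint shown equals the highest concentration tested. Otherwise, values were interpolated linearly from a five-concentration, 48-hour dose response in 96-well plates. Here, GI50 denotes the concentration required for 50% inhibition of growth. TGI: concentration producing complete growth inhibition.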

Experiments:
Assay in all cases: NCI anticancer screen, dose series, 48 h
[1] = tested on: HL-60(TB) leukemia
[2] = tested on: MDA-N
[3] = tested on: OVCAR-3 ovarian
[4] = tested on: RPMI-8226 leukemia
[5] = tested on: HOP-92 NSCLC
[6] = tested on: SK-MEL-5 melanoma
[7] = tested on: SW-620 colon
[8] = tested on: HT29 colon
[9] = tested on: T-47D breast
[10] = tested on: NCI-H226 lung
[11] = tested on: SK-OV-3 ovarian
[12] = tested on: OVCAR-8 ovarian
[13] = tested on: MOLT-4 leukemia
[14] = tested on: U251 CNS

## CC(=O)c1sc2n(C)c(=O)c3ccccc3[n+]2c1C
[1]
  TGI: > 100 µM
[2]
  TGI: > 100 µM
[3]
  TGI: > 100 µM
[4]
  TGI: > 100 µM
[5]
  TGI: > 100 µM
[6]
  TGI: > 100 µM
[7]
  TGI: > 100 µM
[8]
  TGI: > 100 µM
[9]
  TGI: > 100 µM
[10]
  TGI: > 100 µM
[11]
  TGI: > 100 µM
[12]
  TGI: > 100 µM
[13]
  TGI: > 100 µM
[14]
  TGI: > 100 µM

## CCOC(=O)CON=c1c2ccccc2ccc2ccccc12
[1]
  TGI: > 100 µM
[2]
  TGI: > 100 µM
[3]
  TGI: > 100 µM
[4]
  TGI: > 100 µM
[5]
  TGI: > 100 µM
[6]
  TGI: > 100 µM
[7]
  TGI: > 100 µM
[8]
  TGI: > 100 µM
[9]
  TGI: > 100 µM
[10]
  TGI: > 100 µM
[11]
  TGI: > 100 µM
[12]
  TGI: > 100 µM
[13]
  TGI: > 100 µM
[14]
  TGI: > 100 µM

## CN(C)c1cccc(/C=C(\C#N)c2ccccc2)c1
[1]
  TGI: 1.34 µM
[2]
  TGI: 0.161 µM
[3]
  TGI: 3.29 µM
[4]
  TGI: > 42.8 µM
[5]
  TGI: 39.1 µM
[6]
  TGI: 21 µM
[7]
  TGI: > 56 µM
[8]
  TGI: 2.57 µM
[9]
  TGI: 86.5 µM
[10]
  TGI: 24.6 µM
[11]
  TGI: > 49.9 µM
[12]
  TGI: 40 µM
[13]
  TGI: > 21.1 µM
[14]
  TGI: 27.1 µM

## CC(C)(C)OC(=O)NCC(=O)N(CCc1ccc(Cl)c(Cl)c1)CCN1CCCC1
[1]
  TGI: 30.4 µM
[2]
  TGI: 29.1 µM
[3]
  TGI: 32.2 µM
[4]
  TGI: 23.8 µM
[5]
  TGI: 19.4 µM
[6]
  TGI: 28.4 µM
[7]
  TGI: 37.3 µM
[8]
  TGI: 23.7 µM
[9]
  TGI: 53.5 µM
[10]
  TGI: 32.3 µM
[11]
  TGI: 32.1 µM
[12]
  TGI: 35.8 µM
[13]
  TGI: 28.5 µM
[14]
  TGI: 28.7 µM

## O=C(/N=C1/OC(CN2CCOCC2)CN1C(=O)Nc1ccccc1)Nc1ccccc1 (stereo not given)
[1]
  TGI: > 100 µM
[2]
  TGI: > 100 µM
[4]
  TGI: > 100 µM
[5]
  TGI: > 100 µM
[6]
  TGI: > 100 µM
[7]
  TGI: > 100 µM
[8]
  TGI: > 100 µM
[9]
  TGI: > 100 µM
[10]
  TGI: > 100 µM
[11]
  TGI: > 100 µM
[12]
  TGI: > 100 µM
[13]
  TGI: > 100 µM
[14]
  TGI: > 100 µM

## Cc1ccc(/C=C2\CCCCCC2=O)cc1
[1]
  TGI: > 100 µM
[2]
  TGI: > 100 µM
[3]
  TGI: > 100 µM
[4]
  TGI: > 100 µM
[5]
  TGI: > 100 µM
[6]
  TGI: > 100 µM
[7]
  TGI: > 100 µM
[8]
  TGI: > 100 µM
[9]
  TGI: > 100 µM
[10]
  TGI: > 100 µM
[11]
  TGI: > 100 µM
[13]
  TGI: > 100 µM
[14]
  TGI: > 100 µM

## [O-]/[N+](=N/c1ncc(-c2ccccc2)cn1)c1ncc(-c2ccccc2)cn1
[1]
  TGI: > 100 µM
[2]
  TGI: > 100 µM
[3]
  TGI: > 100 µM
[4]
  TGI: > 100 µM
[5]
  TGI: > 100 µM
[6]
  TGI: > 100 µM
[7]
  TGI: > 100 µM
[8]
  TGI: > 100 µM
[9]
  TGI: > 100 µM
[10]
  TGI: > 100 µM
[11]
  TGI: > 100 µM
[12]
  TGI: > 100 µM
[13]
  TGI: > 100 µM
[14]
  TGI: > 100 µM

## CCC1(CC)C(=O)NN(C(=O)c2ccc(Cl)cc2)C1=O
[1]
  TGI: > 100 µM
[2]
  TGI: > 100 µM
[3]
  TGI: > 100 µM
[4]
  TGI: > 100 µM
[6]
  TGI: > 100 µM
[7]
  TGI: > 100 µM
[8]
  TGI: > 100 µM
[9]
  TGI: > 100 µM
[10]
  TGI: > 100 µM
[11]
  TGI: > 100 µM
[12]
  TGI: > 100 µM
[13]
  TGI: > 100 µM
[14]
  TGI: > 100 µM

## O=C1CC2(CCNCC2)C(=O)N1N1CCCCC1
[1]
  TGI: > 100 µM
[2]
  TGI: > 100 µM
[3]
  TGI: > 100 µM
[4]
  TGI: > 100 µM
[5]
  TGI: > 100 µM
[6]
  TGI: > 100 µM
[7]
  TGI: > 100 µM
[8]
  TGI: > 100 µM
[9]
  TGI: > 100 µM
[10]
  TGI: > 100 µM
[11]
  TGI: > 100 µM
[12]
  TGI: > 100 µM
[13]
  TGI: > 100 µM
[14]
  TGI: > 100 µM

## C=CCN1C(=O)/C(=C/c2ccc(OC)cc2)N=C1SC1OC(COC(C)=O)C(OC(C)=O)C(OC(C)=O)C1OC(C)=O (stereo not given)
[1]
  GI50: 11.5 µM and 2.9 µM
  TGI: > 94 µM and 15.4 µM
[2]
  TGI: > 100 µM
[3]
  GI50: 13.5 µM and 58.2 µM
  TGI: 30 µM and > 100 µM
[4]
  TGI: > 100 µM
[5]
  TGI: 46.4 µM and 59.4 µM
[6]
  TGI: 45.2 µM and > 100 µM
[7]
  TGI: > 100 µM
[8]
  TGI: 22.4 µM
[9]
  TGI: 67.5 µM
[10]
  TGI: 55.5 µM and > 100 µM
[11]
  TGI: 36 µM and > 100 µM
[12]
  GI50: 13.1 µM and 54.1 µM
  TGI: > 100 µM
[13]
  GI50: 58.3 µM and 24.7 µM
  TGI: > 100 µM
[14]
  GI50: 14.8 µM and 99.1 µM
  TGI: 58.8 µM and > 100 µM

## CCN(CC)c1ccc2cc(-c3csc(C)n3)c(=O)oc2c1
[1]
  TGI: > 100 µM
[2]
  TGI: > 100 µM
[4]
  TGI: > 100 µM
[5]
  TGI: 92.7 µM
[6]
  TGI: > 100 µM
[7]
  TGI: > 100 µM
[8]
  TGI: > 100 µM
[9]
  TGI: > 100 µM
[10]
  TGI: > 100 µM
[11]
  TGI: > 100 µM
[13]
  TGI: > 100 µM
[14]
  TGI: > 100 µM

## N#Cc1nc(-c2ccc(-c3nc(C#N)c(N)o3)cc2)oc1N
[1]
  TGI: > 10 µM
[2]
  TGI: > 10 µM
[4]
  TGI: > 10 µM
[5]
  TGI: > 10 µM
[6]
  TGI: > 10 µM
[7]
  TGI: > 10 µM
[8]
  TGI: > 10 µM
[9]
  TGI: > 10 µM
[10]
  TGI: > 10 µM
[11]
  TGI: > 10 µM
[12]
  TGI: > 10 µM
[13]
  TGI: > 10 µM

## CC(=O)c1c2c(cc3c1CC1(C3)Cc3cc4c(c(C(C)=O)c3C1)CCCC4)CCCC2
[1]
  TGI: 40 µM
[2]
  TGI: > 100 µM
[3]
  TGI: > 100 µM
[4]
  TGI: > 100 µM
[5]
  TGI: > 100 µM
[6]
  TGI: 35.4 µM
[8]
  TGI: > 100 µM
[9]
  TGI: > 100 µM
[10]
  TGI: > 100 µM
[11]
  TGI: > 100 µM
[12]
  TGI: > 100 µM
[13]
  TGI: 76.5 µM
[14]
  TGI: > 100 µM

## CC(C)(C)Cc1cc(O)ccc1O
[1]
  TGI: 26.6 µM
[2]
  TGI: > 100 µM
[3]
  TGI: > 100 µM
[5]
  TGI: > 100 µM
[7]
  TGI: > 100 µM
[8]
  TGI: > 100 µM
[9]
  TGI: > 100 µM
[10]
  TGI: > 100 µM
[11]
  TGI: > 100 µM
[12]
  TGI: > 100 µM
[13]
  TGI: > 100 µM
[14]
  TGI: > 100 µM

## COC(=O)/C=C/c1ccc2c(c1)[C@H](C(=O)OC)[C@@H](c1ccc(O)cc1)O2
[1]
  TGI: 67.6 µM
[2]
  TGI: 95.7 µM
[3]
  TGI: 28.2 µM
[5]
  TGI: > 100 µM
[6]
  TGI: 28.1 µM
[7]
  TGI: > 100 µM
[8]
  TGI: > 100 µM
[9]
  TGI: > 100 µM
[10]
  TGI: > 100 µM
[11]
  TGI: > 100 µM
[12]
  TGI: > 100 µM
[13]
  TGI: 96.5 µM
[14]
  TGI: > 100 µM

## O=C1OC(C2Cc3ccc4c(c3C2=O)CCCC4)c2ccccc21 (stereo not given)
[1]
  TGI: > 100 µM
[2]
  TGI: > 100 µM
[3]
  TGI: 88.2 µM
[4]
  TGI: > 100 µM
[6]
  TGI: 84.7 µM
[7]
  TGI: > 100 µM
[8]
  TGI: > 100 µM
[9]
  TGI: > 100 µM
[10]
  TGI: 59.2 µM
[11]
  TGI: > 100 µM
[12]
  TGI: > 100 µM
[13]
  TGI: 47.5 µM
[14]
  TGI: > 100 µM

## COc1cc(OC)c2nc(C)c3c(c2c1)OCC3
[1]
  TGI: > 100 µM
[2]
  TGI: > 100 µM
[3]
  TGI: > 100 µM
[4]
  TGI: > 100 µM
[5]
  TGI: > 100 µM
[6]
  TGI: > 100 µM
[7]
  TGI: > 100 µM
[8]
  TGI: > 100 µM
[9]
  TGI: > 100 µM
[10]
  TGI: > 100 µM
[12]
  TGI: > 100 µM
[13]
  TGI: > 100 µM
[14]
  TGI: > 100 µM
